Source: patent publication US10890577B2, “Treatment methods having reduced drug-related toxicity and methods of identifying the likelihood of patient harm from prescribed medications” (TABULA RASA HEALTHCARE, INC., priority 2016, dated 2021)

Key:
L-type Ca^2+ currents = L-type Ca^2+ currents (Homo sapiens, UniProt Q13936); details: cited from earlier work
IKs = IKs (Homo sapiens, UniProt P51787); details: cited from earlier work
IKr = IKr (Homo sapiens, UniProt Q12809); details: cited from earlier work
Sequence of IKr (Q12809 whole entry): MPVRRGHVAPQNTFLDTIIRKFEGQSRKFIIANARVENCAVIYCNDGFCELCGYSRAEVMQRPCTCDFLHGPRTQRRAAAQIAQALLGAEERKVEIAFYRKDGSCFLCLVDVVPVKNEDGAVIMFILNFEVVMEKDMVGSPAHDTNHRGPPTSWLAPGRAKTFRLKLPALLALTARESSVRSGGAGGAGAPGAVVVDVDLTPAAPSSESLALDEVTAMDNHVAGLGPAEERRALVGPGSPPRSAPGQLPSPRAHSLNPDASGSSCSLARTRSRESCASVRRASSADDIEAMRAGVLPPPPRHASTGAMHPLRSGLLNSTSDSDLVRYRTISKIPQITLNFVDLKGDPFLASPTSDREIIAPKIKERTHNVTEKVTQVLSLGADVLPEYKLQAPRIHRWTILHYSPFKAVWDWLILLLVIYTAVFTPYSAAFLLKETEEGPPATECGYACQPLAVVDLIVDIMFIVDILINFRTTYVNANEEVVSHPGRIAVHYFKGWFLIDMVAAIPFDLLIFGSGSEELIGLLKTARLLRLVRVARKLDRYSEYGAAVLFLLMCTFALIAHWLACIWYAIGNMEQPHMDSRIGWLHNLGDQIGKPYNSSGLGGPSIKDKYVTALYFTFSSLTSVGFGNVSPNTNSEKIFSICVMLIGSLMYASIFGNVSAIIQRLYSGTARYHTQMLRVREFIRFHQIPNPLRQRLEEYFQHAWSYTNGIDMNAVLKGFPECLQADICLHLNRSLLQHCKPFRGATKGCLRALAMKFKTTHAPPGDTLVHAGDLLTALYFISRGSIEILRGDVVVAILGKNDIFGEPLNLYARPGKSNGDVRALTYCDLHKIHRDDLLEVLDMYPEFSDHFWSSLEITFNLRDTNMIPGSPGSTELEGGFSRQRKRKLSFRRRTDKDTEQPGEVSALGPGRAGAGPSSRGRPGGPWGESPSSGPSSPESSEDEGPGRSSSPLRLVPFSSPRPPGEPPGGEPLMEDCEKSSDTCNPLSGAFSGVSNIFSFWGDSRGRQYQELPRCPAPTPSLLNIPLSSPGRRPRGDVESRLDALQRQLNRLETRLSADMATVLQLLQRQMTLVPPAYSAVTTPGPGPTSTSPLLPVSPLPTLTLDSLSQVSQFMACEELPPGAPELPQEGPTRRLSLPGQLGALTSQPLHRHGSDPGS

CYP2D6 = CYP2D6 (Homo sapiens, UniProt P10635); details: in vivo; cited from earlier work
[1] = in vivo; cited from earlier work
[2] = CYP2D6 inhibited; 100/(100-MP); over the course of multiple doses
QTc interval = details: positive control; cited from earlier work
[3] = value inserted in K1 equation as (100-97)/100; cited from earlier work
[4] = value inserted in K1 equation; read-out: Cmax of the drug at a test dose; cited from earlier work

Sequence of L-type Ca^2+ currents (Q13936 whole entry): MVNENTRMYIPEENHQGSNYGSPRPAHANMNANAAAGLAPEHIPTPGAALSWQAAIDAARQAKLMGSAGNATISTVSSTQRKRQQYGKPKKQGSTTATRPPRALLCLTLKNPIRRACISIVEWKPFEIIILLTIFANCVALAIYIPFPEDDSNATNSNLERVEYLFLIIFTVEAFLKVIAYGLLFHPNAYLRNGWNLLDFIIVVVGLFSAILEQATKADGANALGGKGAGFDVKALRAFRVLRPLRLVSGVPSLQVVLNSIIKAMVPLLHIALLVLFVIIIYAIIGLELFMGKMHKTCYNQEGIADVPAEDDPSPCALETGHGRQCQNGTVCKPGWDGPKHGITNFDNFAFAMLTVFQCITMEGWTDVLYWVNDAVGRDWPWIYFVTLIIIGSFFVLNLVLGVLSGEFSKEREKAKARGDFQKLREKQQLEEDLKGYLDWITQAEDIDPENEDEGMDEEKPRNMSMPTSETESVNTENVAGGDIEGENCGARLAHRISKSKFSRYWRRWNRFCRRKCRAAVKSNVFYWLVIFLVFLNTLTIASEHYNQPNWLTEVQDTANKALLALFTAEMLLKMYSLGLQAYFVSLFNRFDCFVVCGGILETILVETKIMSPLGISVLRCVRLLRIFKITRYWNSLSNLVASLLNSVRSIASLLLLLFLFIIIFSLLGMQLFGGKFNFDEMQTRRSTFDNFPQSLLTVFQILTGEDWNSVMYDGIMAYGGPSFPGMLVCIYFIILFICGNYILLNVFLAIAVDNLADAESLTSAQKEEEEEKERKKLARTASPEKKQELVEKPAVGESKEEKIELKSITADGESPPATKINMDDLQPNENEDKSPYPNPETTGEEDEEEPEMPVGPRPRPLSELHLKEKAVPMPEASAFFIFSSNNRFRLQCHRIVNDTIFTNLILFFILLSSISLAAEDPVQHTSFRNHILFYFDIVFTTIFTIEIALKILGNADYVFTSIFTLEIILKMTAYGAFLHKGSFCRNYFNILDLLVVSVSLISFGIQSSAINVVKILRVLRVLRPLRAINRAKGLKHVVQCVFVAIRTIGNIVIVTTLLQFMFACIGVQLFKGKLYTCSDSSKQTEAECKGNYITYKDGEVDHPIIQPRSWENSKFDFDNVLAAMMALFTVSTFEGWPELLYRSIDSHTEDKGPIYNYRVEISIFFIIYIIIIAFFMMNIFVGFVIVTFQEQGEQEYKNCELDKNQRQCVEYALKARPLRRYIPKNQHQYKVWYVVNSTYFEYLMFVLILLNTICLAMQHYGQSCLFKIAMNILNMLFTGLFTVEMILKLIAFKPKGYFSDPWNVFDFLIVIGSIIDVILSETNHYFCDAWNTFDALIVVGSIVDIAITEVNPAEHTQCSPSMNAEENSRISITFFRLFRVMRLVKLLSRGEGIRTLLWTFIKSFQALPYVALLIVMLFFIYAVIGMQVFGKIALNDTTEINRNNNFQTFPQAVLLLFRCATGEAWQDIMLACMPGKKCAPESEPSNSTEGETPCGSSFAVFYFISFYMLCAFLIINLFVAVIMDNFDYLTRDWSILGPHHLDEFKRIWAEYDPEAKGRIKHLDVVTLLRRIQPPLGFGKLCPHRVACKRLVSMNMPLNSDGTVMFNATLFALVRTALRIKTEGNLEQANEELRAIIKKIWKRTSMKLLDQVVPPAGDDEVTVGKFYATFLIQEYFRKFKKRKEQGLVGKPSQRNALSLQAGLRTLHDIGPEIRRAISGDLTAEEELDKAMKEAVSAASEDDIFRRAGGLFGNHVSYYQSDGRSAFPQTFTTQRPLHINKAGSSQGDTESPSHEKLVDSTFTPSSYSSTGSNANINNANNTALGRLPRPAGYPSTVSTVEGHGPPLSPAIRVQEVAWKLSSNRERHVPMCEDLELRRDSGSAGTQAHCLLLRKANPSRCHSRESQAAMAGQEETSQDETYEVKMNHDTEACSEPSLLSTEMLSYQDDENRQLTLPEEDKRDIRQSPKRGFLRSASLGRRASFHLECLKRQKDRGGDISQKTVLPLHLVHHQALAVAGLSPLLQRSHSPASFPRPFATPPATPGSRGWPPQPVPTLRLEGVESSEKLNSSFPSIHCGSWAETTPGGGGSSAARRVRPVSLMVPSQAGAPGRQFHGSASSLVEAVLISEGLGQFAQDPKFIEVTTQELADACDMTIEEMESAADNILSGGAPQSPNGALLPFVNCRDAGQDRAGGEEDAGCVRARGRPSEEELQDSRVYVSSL
Sequence of L-type Ca^2+ currents (Q08289 whole entry partner): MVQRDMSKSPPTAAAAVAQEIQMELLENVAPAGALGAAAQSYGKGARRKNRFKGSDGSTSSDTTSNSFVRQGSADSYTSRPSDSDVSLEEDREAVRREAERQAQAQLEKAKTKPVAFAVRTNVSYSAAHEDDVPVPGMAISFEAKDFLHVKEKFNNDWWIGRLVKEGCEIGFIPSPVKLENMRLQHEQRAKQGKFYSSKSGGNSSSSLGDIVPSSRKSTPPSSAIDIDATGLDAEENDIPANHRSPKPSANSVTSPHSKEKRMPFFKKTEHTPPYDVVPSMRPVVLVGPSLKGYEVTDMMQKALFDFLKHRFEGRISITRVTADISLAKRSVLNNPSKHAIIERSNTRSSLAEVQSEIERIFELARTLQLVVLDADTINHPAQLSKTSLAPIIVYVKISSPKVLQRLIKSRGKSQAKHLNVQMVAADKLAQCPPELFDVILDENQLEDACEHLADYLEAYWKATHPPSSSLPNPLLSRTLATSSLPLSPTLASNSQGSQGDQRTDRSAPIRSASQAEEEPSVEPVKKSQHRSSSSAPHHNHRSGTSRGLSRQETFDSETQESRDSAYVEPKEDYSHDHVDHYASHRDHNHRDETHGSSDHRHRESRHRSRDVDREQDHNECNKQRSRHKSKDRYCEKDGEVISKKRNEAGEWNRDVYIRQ
Sequence of L-type Ca^2+ currents (P54289 25-956 partner limits assumed): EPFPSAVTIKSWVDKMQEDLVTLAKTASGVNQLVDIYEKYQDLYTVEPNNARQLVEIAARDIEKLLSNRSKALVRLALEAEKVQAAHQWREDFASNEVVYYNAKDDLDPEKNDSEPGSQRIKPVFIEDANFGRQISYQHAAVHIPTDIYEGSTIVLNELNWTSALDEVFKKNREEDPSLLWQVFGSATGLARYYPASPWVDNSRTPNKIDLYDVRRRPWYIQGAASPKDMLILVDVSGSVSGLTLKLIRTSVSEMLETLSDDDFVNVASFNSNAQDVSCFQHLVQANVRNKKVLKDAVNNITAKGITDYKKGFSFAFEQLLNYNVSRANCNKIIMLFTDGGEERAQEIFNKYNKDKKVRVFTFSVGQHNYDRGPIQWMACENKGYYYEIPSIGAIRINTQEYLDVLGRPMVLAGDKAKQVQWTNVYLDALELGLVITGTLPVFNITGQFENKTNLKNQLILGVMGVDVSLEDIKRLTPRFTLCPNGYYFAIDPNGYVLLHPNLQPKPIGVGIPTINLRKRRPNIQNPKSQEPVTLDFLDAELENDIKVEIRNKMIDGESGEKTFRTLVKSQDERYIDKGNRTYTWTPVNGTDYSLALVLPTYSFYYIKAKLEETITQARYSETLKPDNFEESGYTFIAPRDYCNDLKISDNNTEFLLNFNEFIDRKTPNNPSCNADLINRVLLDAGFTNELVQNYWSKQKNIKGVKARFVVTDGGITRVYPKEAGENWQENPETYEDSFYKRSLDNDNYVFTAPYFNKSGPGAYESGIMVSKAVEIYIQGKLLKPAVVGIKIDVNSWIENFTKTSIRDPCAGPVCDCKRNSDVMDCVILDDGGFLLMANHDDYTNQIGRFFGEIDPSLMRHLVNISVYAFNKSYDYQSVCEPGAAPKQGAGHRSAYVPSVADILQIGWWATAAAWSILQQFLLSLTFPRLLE
Sequence of L-type Ca^2+ currents (P54289 957-1103 partner limits assumed): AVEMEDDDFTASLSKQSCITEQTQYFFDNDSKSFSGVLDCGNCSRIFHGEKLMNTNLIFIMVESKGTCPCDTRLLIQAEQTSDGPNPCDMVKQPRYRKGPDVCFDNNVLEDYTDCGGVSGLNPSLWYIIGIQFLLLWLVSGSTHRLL

SMILES: CCCCc1oc2ccccc2c1C(=O)c1cc(I)c(OCCN(CC)CC)c(I)c1 [Amiodarone]
- block of L-type Ca2+ currents (L-type Ca^2+ currents): blocks L-type Ca^2+ currents

SMILES: CC1Cc2ccccc2N1NC(=O)c1ccc(Cl)c(S(N)(=O)=O)c1 (centres unmarked) [Indapamide]
- block of IKs (IKs): inhibit IKs

SMILES: COc1ccccc1OCC(O)CN1CCN(CC(=O)Nc2c(C)cccc2C)CC1 (centres unmarked) [Ranolazine]
- block of IKr (IKr): blocks IKr

SMILES: Cc1cccc(C)c1OCC(C)N (centres unmarked) [mexiletine]
- cleared by CYP2D6 (CYP2D6): 75%
- F (bioavailability) [1]: 95%
- increase in concentration [2]: ~4 fold

SMILES: COc1c(N2C[C@@H]3CCCN[C@@H]3C2)c(F)cc2c(=O)c(C(=O)O)cn(C3CC3)c12 [moxifloxacin]
- QT prolongation added to the QTc interval (QTc interval): 7-10 milliseconds

SMILES: CC(C)(C)c1ccc(C(O)CCCN2CCC(C(O)(c3ccccc3)c3ccccc3)CC2)cc1 (centres unmarked) [terfenadine]
- Protein binding of the drug [3]: 97%
- Cmax [4]: 3.18 nM

SMILES: Nc1nc(N)c2nc(-c3ccccc3)c(N)nc2n1 [triamterene]
- block of IKr (IKr): significant block
- block of IKs (IKs): significant block
